Numbered stars: 1 amine (or outer) side, 2 acyl side, 3 side chain; on linkers, the order of the positions; unused ones are H or OH. Bridge positions count the residues as written; N and C are the ends. Square brackets hold non-standard residues; d marks the D form. Side chains are listed from the residue outwards. Peptide text beside a SMILES is read from it. * marks the point of attachment. γGlu = O=C(O)[C@H](CCC(=O)[*:2])N[*:1]; Lauroyl = CCCCCCCCCCCC(=O)*; Dab = NCC[C@H](N)C(=O)O
Legend:
[1] = molecular target: T1, human CXCR4 (Homo sapiens, UniProt P61073); test: Ca2+-assay: CXCR4-antagonizing activity (SDF-1 induced calcium mobilization); type: cell-based; settings: mouse pre-B cell line 300-19 transfected with human CXCR4; SDF-1 induced Ca2+ mobilization; read-out: IC50% [nM] ± SD, CXCR4 receptor
T1 construct: expressed in transfected cells; host or cells: mouse pre-B cell line 300-19
T1 sequence (P61073 whole entry): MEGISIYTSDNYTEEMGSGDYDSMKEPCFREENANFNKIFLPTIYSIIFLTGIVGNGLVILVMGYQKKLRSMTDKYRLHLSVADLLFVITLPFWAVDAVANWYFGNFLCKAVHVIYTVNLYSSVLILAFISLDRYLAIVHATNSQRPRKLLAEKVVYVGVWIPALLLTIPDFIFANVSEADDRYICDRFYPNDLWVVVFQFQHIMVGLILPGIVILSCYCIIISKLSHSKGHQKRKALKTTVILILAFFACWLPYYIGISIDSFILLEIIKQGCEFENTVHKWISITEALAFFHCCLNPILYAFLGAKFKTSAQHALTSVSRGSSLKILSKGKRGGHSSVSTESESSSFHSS
Outline: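 Mouse pre-B 300-19 cells stably expressing human CXCR4, loaded with Calcium 4 dye in HBSS/20 mM HEPES pH 7.4/0.1% BSA for 1 h at RT. Peptides added before SDF-1; fluorescence (ex 485/em 525 nm) followed for 90 s. IC50 from four-parameter logistic fit of % maximal SDF-1 response.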

[2] = in vivo; set-up: species or system male CD-1 mice; settings: for bioavailability / AUC(0-inf) / Cmax / Tmax / half-life / level at 0.083 h / level at 0.25 h / level at 0.5 h / level at 1 h / level at 2 h / level at 4 h / level at 8 h / level at 12 h / level at 24 h: male, CD-1, mouse; for AUC0-∞ dcor. / Cmax dcor.: mouse
Method: 2.7. Pharmacokinetic Study (PK)
Pharmacokinetic study after intravenous (i.v.) and subcutaneous (s.c.) administration was performed for the compounds of Ex. 17, Ex. 20, Ex. 25, Ex. 26, Ex. 28, and Ex. 29. […] The compounds of Ex. 17, Ex. 25, Ex. 26, Ex. 28, and Ex. 29 were administered i.v. and s.c. as a cassette whereas for the compound of Ex. 20a single i.v. and s.c. administration was accomplished.
30 grams (±20%) male CD-1 mice obtained from Janvier, France, were used in the study testing the cassette compounds. The vehicle, phosphate buffered saline containing 5% DMSO, was added to give a final concentration of 0.5 mg/mL of the compounds (i.v. route and s.c. route). The volume was 2 mL/kg i.v. and 10 mL/kg s.c. and the cassette compounds were injected to give a final intravenous dose of 1 mg/kg and an subcutaneous dose of 5 mg/kg. Approximately 500 μL of blood were removed from the opened heart at predetermined time intervals (5, 15, 30 min and 1, 2, 4, 8 and 12 hours for the i.v. study and 5, 15, 30 min and 1, 2, 4, 8, 12 and 24 hours for the s.c. study) and added to heparinized tubes. Plasma was removed from pelleted cells upon centrifugation and frozen at −80° C. prior to HPLC-MS analysis. For the compound of Ex. 20 30 grams (±20%) male CD-1 mice obtained from Charles River Laboratories Deutschland GmbH were used. The vehicle, phosphate buffered saline, was added to give a final concentration of 0.2 mg/mL of the compound (i.v. route) and 1 mg/mL (s.c. route). The volume was 5 mL/kg i.v. and s.c. and the compound was injected to give a final intravenous dose of 1 mg/kg and an subcutaneous dose of 5 mg/kg. Approximately 300-400 μL of blood was removed under light isoflurane anesthesia by cardiac puncture at predetermined time intervals (5, 15, 30 min and 1, 2, 3, 4, 6, 12 hours for the i.v. study and 15, min and 1, 2, 4, 6, 8, 12 and 24 hours for the s.c. study) and added to heparinized tubes. Plasma was removed from pelleted cells upon centrifugation and frozen at −80° C. prior to HPLC-MS analysis.
Preparation of the Plasma Calibration Samples
“Blank” mouse plasma from untreated animals was used. Aliquots of plasma of 0.2 mL each were spiked with 50 ng of propranolol (Internal Standard, IS), (sample preparation by solid phase extraction on OASIS® HLB cartridges [Waters]) and with known amounts of Ex. 20 in order to obtain 9 plasma calibration samples in the range 10-5000 nM. The OASIS® HLB cartridges were conditioned with 1 mL of methanol and then with 1 mL of 1% NH3 in water. Samples were then diluted with 700 μL of 1% NH3 in water and loaded. The plate was washed with 1 mL of methanol/1% NH3 in water 5/95 (v/v). Elution was performed using 1 mL of 0.1% TFA in methanol.
The plate containing eluates was introduced into the concentrator system and taken to dryness. The residues were dissolved in 100 μL of formic acid 0.1%/acetonitrile, 95/5 (v/v) and analysed in the HPLC/MS on a reverse phase analytical column (Jupiter C18, 50×2.0 mm, 5 μm, Phenomenex), using gradient elution (mobile phases A: 0.1% formic acid in water, B: acetonitrile; from 5% B to 100% B in 2 min.).
Preparation of Plasma Samples
Samples coming from animal treatments were pooled in order to obtain an appropriate volume for the extraction. If the total volume obtained was less than 0.2 mL the appropriate amount of “blank” mouse plasma was added in order to keep the matrix identical to the calibration curve. Samples were than spiked with IS and processed as described for the calibration curve.
Pharmacokinetic Evaluation
In order to perform PK analysis pooled plasma data (n=3 mice) was used. PK parameters were calculated by WinNonLin™ software version 5.2.1 (Pharsight—A Certara™ Company, Mountain View, Calif. 94041 USA) using non-compartmental analysis with a linear up/log down trapezoidal calculation method. For the terminal elimination phase at least 3 time points and a correlation coefficient greater than 0.85 was used. […]

| SMILES | IC50 [1] [nM] | bioavailability [2] [%] | AUC(0-inf) ([2]; iv, 1 mg/kg) [ng·h/mL] | Cmax ([2]; iv, 1 mg/kg) [ng/mL] | Tmax ([2]; iv, 1 mg/kg) [h] | half-life ([2]; iv, 1 mg/kg) [h] | level at 0.083 h ([2]; iv, 1 mg/kg) [ng/mL] | level at 0.25 h ([2]; iv, 1 mg/kg) [ng/mL] | level at 0.5 h ([2]; iv, 1 mg/kg) [ng/mL] | level at 1 h ([2]; iv, 1 mg/kg) [ng/mL] | level at 2 h ([2]; iv, 1 mg/kg) [ng/mL] | level at 4 h ([2]; iv, 1 mg/kg) [ng/mL] | level at 8 h ([2]; iv, 1 mg/kg) [ng/mL] | AUC(0-inf) ([2]; sc, 5 mg/kg) [ng·h/mL] | Cmax ([2]; sc, 5 mg/kg) [ng/mL] | Tmax ([2]; sc, 5 mg/kg) [h] | half-life ([2]; sc, 5 mg/kg) [h] | level at 0.25 h ([2]; sc, 5 mg/kg) [ng/mL] | level at 0.5 h ([2]; sc, 5 mg/kg) [ng/mL] | level at 1 h ([2]; sc, 5 mg/kg) [ng/mL] | further results |
| --- | --- | --- | --- | --- | --- | --- | --- | --- | --- | --- | --- | --- | --- | --- | --- | --- | --- | --- | --- | --- | --- |
| CCCCCCCCCCCC(=O)N[C@@H](CCC(=O)NCCCC[C@@H]1NC(=O)[C@H](Cc2ccc(O)cc2)NC(=O)[C@@H]2CSSC[C@H](NC(=O)[C@H](Cc3ccc(O)cc3)NC(=O)[C@H](Cc3c[nH]cn3)NC(=O)[C@H](Cc3ccc(O)cc3)NC(=O)[C@@H]3CCCN3C(=O)[C@H]3CCCN3C(=O)[C@H](CCCCN)NC1=O)C(=O)N[C@@H](CO)C(=O)N[C@@H](C)C(=O)N1CCC[C@@H]1C(=O)N[C@@H](CCN)C(=O)N[C@@H](CCCNC(=N)N)C(=O)N[C@@H](Cc1ccc(O)cc1)C(=O)N2)C(=O)O [Ex. 25] (cyclo(YHYCSA[dP][Dab]RYCYK([γGlu-Lauroyl])K[dP]P); disulfide 4-11) | 3.5 ± 0.1 | 142 | 3480 | 2970 | 0.1 | 2.5 | 2970 | 2190 | 1990 | 1600 | 160 | 180 | 18 | 24700 | 2190 | 2 | 4.7 | 44 | 205 | 517 | level at 12 h ([2]; iv, 1 mg/kg): 16 ng/mL; level at 2 h ([2]; sc, 5 mg/kg): 2190 ng/mL; level at 4 h ([2]; sc, 5 mg/kg): 1640 ng/mL; level at 8 h ([2]; sc, 5 mg/kg): 1890 ng/mL; level at 12 h ([2]; sc, 5 mg/kg): 1210 ng/mL; level at 24 h ([2]; sc, 5 mg/kg): 108 ng/mL; AUC0-∞ dcor. ([2]; iv, 1 mg/kg): 3480.0 kg·ng·h/mg/mL; Cmax dcor. ([2]; iv, 1 mg/kg): 2970.0 kg·ng/mg/mL; AUC0-∞ dcor. ([2]; sc, 5 mg/kg): 4944.7 kg·ng·h/mg/mL; Cmax dcor. ([2]; sc, 5 mg/kg): 437.4 kg·ng/mg/mL |
| CCCCCCCCCCCC(=O)N[C@@H](CCC(=O)NCCCC[C@@H]1NC(=O)[C@H](Cc2ccc(O)cc2)NC(=O)[C@@H]2CSSC[C@H](NC(=O)[C@H](C)NC(=O)[C@H](Cc3c[nH]cn3)NC(=O)[C@H](Cc3ccc(O)cc3)NC(=O)[C@@H]3CCCN3C(=O)[C@H]3CCCN3C(=O)[C@H](CCCCN)NC1=O)C(=O)N[C@@H](CCCNC(=N)N)C(=O)N[C@@H](C)C(=O)N1CCC[C@@H]1C(=O)N[C@@H](CCN)C(=O)N[C@@H](CCCNC(=N)N)C(=O)N[C@@H](Cc1ccc(O)cc1)C(=O)N2)C(=O)O [Ex. 26] (cyclo(YHACRA[dP][Dab]RYCYK([γGlu-Lauroyl])K[dP]P); disulfide 4-11) | 2.4 ± 0.5 | 142 | 3400 | 3470 | 0.1 | 1.3 | 3470 | 2530 | 1980 | 1540 | 219 | 98 | 10 | 24000 | 3990 | 2 | 2.9 | 221 | 779 | 1750 | level at 2 h ([2]; sc, 5 mg/kg): 3990 ng/mL; level at 4 h ([2]; sc, 5 mg/kg): 2530 ng/mL; level at 8 h ([2]; sc, 5 mg/kg): 1600 ng/mL; level at 12 h ([2]; sc, 5 mg/kg): 524 ng/mL; level at 24 h ([2]; sc, 5 mg/kg): 23 ng/mL; AUC0-∞ dcor. ([2]; iv, 1 mg/kg): 3395.6 kg·ng·h/mg/mL; Cmax dcor. ([2]; iv, 1 mg/kg): 3467.0 kg·ng/mg/mL; AUC0-∞ dcor. ([2]; sc, 5 mg/kg): 4806.6 kg·ng·h/mg/mL; Cmax dcor. ([2]; sc, 5 mg/kg): 797.4 kg·ng/mg/mL |
